Square brackets hold non-standard residues; d marks the D form. Peptide text beside a SMILES is read from it. * marks the point of attachment. Pyrrolidine(2S-propanoyl) = CCC(=O)[C@@H]1CCCN1*; X2 = C#CCCCC[C@H](C)C[C@@H](C)C(=O)*; NMeI = CC[C@H](C)[C@H](NC)C(=O)O; X1 = C#CCCCCCC[C@@H](C)C(=O)*; NMeV = CN[C@H](C(=O)O)C(C)C
What was measured:
[1] = Effect on preadipocyte differentiation in mouse 3T3-L1 cells assessed as lipid droplet accumulation at 10 uM in presence of insulin measured after 9 days by Oil Red O staining based assay; type: functional; settings: time 9 day
3T3-L1 = assay: Cytotoxicity against mouse 3T3-L1 cells assessed as reduction in cell viability at 30 uM in presence of insulin measured after 3 days by MTT assay; type: toxicity, cell-based; settings: 3t3-l1, 72 h, time 3 day

## C#CCCCC[C@H](C)C[C@@H](C)C(=O)N(C)[C@H](C(=O)N(C)[C@H](C(=O)N1CCC[C@H]1C(=O)N(C)[C@H](C(=O)N1CCC[C@H]1C(=O)CC)C(C)C)[C@@H](C)CC)C(C)C (X2-[NMeV][NMeI]P[NMeV]-{Pyrrolidine(2S-propanoyl)})
[1]
  fold change (FC): 2.1
3T3-L1
  Activity: Non-Toxic

## C#CCCCCCC[C@@H](C)C(=O)N(C)[C@H](C(=O)N(C)[C@H](C(=O)N1CCC[C@H]1C(=O)N(C)[C@H](C(=O)N1CCC[C@H]1C(=O)CC)C(C)C)[C@@H](C)CC)C(C)C (X1-[NMeV][NMeI]P[NMeV]-{Pyrrolidine(2S-propanoyl)})
[1]
  fold change (FC): 1.9
3T3-L1
  Activity: Non-Toxic

Source: ChEMBL document CHEMBL5046243, “Odookeanynes A and B, Acetylene-Containing Lipopeptides from an Okeania sp. Marine Cyanobacterium” (J Nat Prod, 2022)
